Each structure is given as a SMILES string.

Test system in one test: not listed separately
The experiment in a line: Agonist activity at CqsS in Vibrio cholerae MM920 harboring deltacqsA, deltaluxQ and pBB1 after 4 hrs by bioluminescence assay. It is filed as functional.
On to `CCC/C=C/CCCOC(=O)C(O)CC` (racemic), for which the concentration for a half-maximal effect (EC50) – broadly, the concentration giving half of the maximal effect – turned out to be 270 nM. Molecule `CCCCCc1ccc(COC(=O)C(O)CC)cc1` (racemic) yielded a concentration giving a half-maximal response (EC50) of 680 nM. Still for that read-out and setting: for `CCC/C=C\CCCOC(=O)C(O)CC` (racemic) the value was 1800 nM; for `CCCCC/C=C/COC(=O)C(O)CC` (racemic), 54 nM.

As for `CCc1ccc(CCCOC(=O)C(O)CC)cc1` (racemic), the EC50 stood at 190 nM. The same measure, in the same setting: the figure for `CCCCOC(=O)C(O)CC` (racemic) is greater than 50000 nM; for `CCCCCCOCCOC(=O)C(O)CC` (racemic) it is 2400 nM; for `CCCCCCCCOC(=O)[C@H](N)CC` it is 33 nM. On the same count and under the same terms, for `CCCCCCCCCC(=O)[C@@H](N)CC` the value was 28 nM. Still for that read-out and setting: for `CCCCCc1cccc(COC(=O)C(O)CC)c1` (racemic) the value was 1600 nM. `CCCCc1cccc(COC(=O)C(O)CC)c1` (racemic): the concentration giving a half-maximal response (EC50) was found to be 3700 nM. The same measure, in the same setting: the figure for `CCCC/C=C\CCOC(=O)C(O)CC` (racemic) is 780 nM. On the same count and under the same terms, the figure for `CCCCCCCOC(=O)C(O)CC` (racemic) is 350 nM; for `CCCCc1ccc(COC(=O)C(O)CC)cc1` (racemic) it is 190 nM; for `CCCCc1ccccc1COC(=O)C(O)CC` (racemic) it is greater than 50000 nM. Same read-out and setting: the figure for `CCCCCCCCCCOC(=O)C(O)CC` (racemic) is 720 nM. For `CCCCCCOC(=O)C(O)CC` (racemic), the concentration giving a half-maximal response (EC50) worked out at 1000 nM.

Molecule `CCCCC[C@@H]1C[C@H]1COC(=O)C(O)CC` (mixture of isomers) gave an EC50 of 1200 nM. Same read-out and setting: for `CCCCCOCCOC(=O)C(O)CC` (racemic) the value was 4400 nM. Regarding `CCc1ccccc1CCCOC(=O)C(O)CC` (racemic), the EC50 is greater than 50000 nM. Regarding `CCCCC/C=C/COC(=O)[C@@H](O)CC`, a half-maximal effect (EC50) was put at 39 nM. Still for that read-out and setting: the figure for `CC/C=C/CCCCOC(=O)C(O)CC` (racemic) is 830 nM; for `CCCCCCCCNC(=O)[C@@H](O)CC` it is 1500 nM. Regarding `CCCCCCCCOC(=O)[C@@H](N)CC`, the EC50 came out at 30 nM. Same read-out and setting: for `CC/C=C\CCCCOC(=O)C(O)CC` (racemic) the value was 570 nM.

`CCCC/C=C/CCOC(=O)C(O)CC` (racemic) returned a concentration for a half-maximal effect (EC50) of 770 nM. Same read-out and setting: the figure for `CCCCC#CCCOC(=O)C(O)CC` (racemic) is 2000 nM.

Turning to `CCc1cccc(CCCOC(=O)C(O)CC)c1` (racemic), the EC50 stood at 9400 nM.

`CCCCC/C=C\COC(=O)C(O)CC` (racemic) yielded a concentration giving a half-maximal response (EC50) of 710 nM.

`CCCCCCCCCOC(=O)C(O)CC` (racemic) yielded a 50% effective concentration (EC50) of 73 nM. Regarding `CCCCCC#CCOC(=O)C(O)CC` (racemic), the 50% effective concentration (EC50) is 550 nM. The same measure, in the same setting: for `CCOCCOCCOC(=O)C(O)CC` (racemic) the value was greater than 50000 nM; for `CCCCc1ccc(COC(=O)[C@@H](O)CC)cc1`, 117 nM. Turning to `CCC(O)C(=O)OCCOCCOCCOC` (racemic), the response was half-maximal at 10000 nM (EC50).

In the next test the test system is Vibrio cholerae. The experiment in a line: Agonist activity at CqsS in Vibrio cholerae MM920 harboring deltacqsA, deltaluxQ and pBB1 at 50000 nM after 4 hrs by bioluminescence assay relative to CAI-1. It is filed as functional.
For `CCCCOC(=O)C(O)CC` (racemic), the maximal effect (Emax) (commonly the greatest response seen or fitted, relative to the assay's reference) came to 23%.

In turn, `CCCCc1ccccc1COC(=O)C(O)CC` (racemic) had a maximum response (Emax) of 11%. On the same count and under the same terms, for `CCc1ccccc1CCCOC(=O)C(O)CC` (racemic) the value was 28%. On the same count and under the same terms, the figure for `CCOCCOCCOC(=O)C(O)CC` (racemic) is 31%.

Values taken from ChEMBL document CHEMBL2177101, “Role of the CAI-1 fatty acid tail in the Vibrio cholerae quorum sensing response” (J Med Chem, 2012).
